For 5 molecules, IC50, Kd and Ki results are on record in ChEMBL document CHEMBL5096167, “Recent advances in development of hetero-bivalent kinase inhibitors” (Eur J Med Chem, 2021).

Molecules are shown by their SMILES. pIC50, pKd, pKi: −log10 of the molar value.

Assay [1] has as its target Casein kinase II subunit alpha (Homo sapiens, UniProt P68400). The assay is described as follows: Inhibition of CK2alpha in human MIA PaCa-2 cells incubated for 5 hrs by western blot analysis. The assay is classed as cell-based. (In western blotting, separated proteins are transferred to a membrane and probed.)
The target in assay [2] is Proto-oncogene tyrosine-protein kinase Src (Gallus gallus, UniProt P00523). The assay can be described thus: Binding affinity to chicken 6-His tagged c-Src expressed in Escherichia coli Bl21 (DE3) assessed as dissociation constant.
The target in assay [3] is Mitogen-activated protein kinase 7 (Mus musculus, UniProt Q9WVS8). The assay is described as follows: Activation of ERK5 in MEF cells. Type of assay: cell-based.
Assay [4] addresses Proto-oncogene tyrosine-protein kinase Src (Homo sapiens, UniProt P12931). The assay is described as follows: Irreversible inhibition of wild type c-Src (unknown origin) assessed as inhibition constant by fluorimetric assay.
For assay [5], the target named is Mitogen-activated protein kinase 1 (Homo sapiens, UniProt P28482).
Mitogen-activated protein kinase 1, sequence (P28482 whole entry): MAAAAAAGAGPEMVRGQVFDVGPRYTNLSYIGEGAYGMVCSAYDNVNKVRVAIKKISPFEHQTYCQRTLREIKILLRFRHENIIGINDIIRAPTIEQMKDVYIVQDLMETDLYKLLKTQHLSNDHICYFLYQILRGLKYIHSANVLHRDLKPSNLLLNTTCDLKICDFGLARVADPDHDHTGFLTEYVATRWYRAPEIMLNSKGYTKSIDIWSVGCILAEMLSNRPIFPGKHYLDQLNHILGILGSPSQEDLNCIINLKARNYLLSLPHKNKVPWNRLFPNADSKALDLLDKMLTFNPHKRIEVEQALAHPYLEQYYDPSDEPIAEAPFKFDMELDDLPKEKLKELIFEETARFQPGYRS

Mitogen-activated protein kinase 7, sequence (Q9WVS8 whole entry): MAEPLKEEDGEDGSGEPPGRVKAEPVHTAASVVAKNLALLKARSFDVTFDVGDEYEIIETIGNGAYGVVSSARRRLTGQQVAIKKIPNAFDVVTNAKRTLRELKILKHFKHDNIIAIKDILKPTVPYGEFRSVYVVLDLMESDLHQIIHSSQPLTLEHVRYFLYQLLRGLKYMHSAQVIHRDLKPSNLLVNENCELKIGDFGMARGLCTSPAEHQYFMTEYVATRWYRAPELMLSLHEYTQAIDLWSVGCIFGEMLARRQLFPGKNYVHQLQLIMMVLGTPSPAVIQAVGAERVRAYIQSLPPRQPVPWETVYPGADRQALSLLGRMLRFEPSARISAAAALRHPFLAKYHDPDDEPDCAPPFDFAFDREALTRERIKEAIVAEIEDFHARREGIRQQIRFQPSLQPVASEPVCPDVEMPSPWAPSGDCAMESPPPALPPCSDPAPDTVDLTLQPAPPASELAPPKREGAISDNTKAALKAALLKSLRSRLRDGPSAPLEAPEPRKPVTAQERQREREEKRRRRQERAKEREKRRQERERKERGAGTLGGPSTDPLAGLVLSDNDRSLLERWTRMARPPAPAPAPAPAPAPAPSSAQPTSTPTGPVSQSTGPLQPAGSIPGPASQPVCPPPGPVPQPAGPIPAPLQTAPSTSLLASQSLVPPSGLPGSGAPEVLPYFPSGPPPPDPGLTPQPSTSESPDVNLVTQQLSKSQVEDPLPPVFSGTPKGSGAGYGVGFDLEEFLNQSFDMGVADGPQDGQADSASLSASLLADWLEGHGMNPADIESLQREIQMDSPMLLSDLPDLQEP
Proto-oncogene tyrosine-protein kinase Src (Homo sapiens, UniProt P12931), sequence (P12931 2-536 limits assumed): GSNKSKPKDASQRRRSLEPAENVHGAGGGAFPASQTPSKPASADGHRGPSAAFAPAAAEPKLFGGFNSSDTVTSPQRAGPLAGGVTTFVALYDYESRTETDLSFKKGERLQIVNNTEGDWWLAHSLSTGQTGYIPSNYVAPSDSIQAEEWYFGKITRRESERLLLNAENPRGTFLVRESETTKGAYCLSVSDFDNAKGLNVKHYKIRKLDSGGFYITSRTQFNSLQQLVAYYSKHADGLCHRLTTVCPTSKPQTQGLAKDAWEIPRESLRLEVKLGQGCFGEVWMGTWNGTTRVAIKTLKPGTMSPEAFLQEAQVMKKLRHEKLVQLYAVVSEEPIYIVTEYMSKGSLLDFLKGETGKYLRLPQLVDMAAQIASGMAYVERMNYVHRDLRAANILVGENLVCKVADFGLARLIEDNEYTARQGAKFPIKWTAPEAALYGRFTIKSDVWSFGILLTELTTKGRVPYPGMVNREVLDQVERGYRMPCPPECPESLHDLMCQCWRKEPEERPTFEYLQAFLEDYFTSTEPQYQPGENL
Casein kinase II subunit alpha, sequence (P68400 whole entry): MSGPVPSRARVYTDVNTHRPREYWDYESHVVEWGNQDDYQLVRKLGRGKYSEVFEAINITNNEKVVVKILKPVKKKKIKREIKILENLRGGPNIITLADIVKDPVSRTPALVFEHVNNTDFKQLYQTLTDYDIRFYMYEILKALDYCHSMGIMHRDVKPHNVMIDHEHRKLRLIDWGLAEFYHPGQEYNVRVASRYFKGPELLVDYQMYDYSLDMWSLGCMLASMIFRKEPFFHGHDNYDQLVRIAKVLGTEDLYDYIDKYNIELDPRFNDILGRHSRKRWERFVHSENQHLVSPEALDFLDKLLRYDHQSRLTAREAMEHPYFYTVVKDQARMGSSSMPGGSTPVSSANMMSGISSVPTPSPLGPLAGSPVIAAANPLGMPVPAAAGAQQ

Broadly, the pIC50 is the negative decadic logarithm of the IC50, by convention in mol/L. A high value points to a small IC50. `CC(=O)OCOC(=O)CN(CC(=O)OCOC(C)=O)C(=O)CN(CC(=O)OCOC(C)=O)C(=O)CN(CC(=O)OCOC(C)=O)C(=O)CCCCCCCn1cnc2c(Br)c(Br)c(Br)c(Br)c21`: in assay [1], the pIC50 is 7.33.

A word on the pKd: it is the negative decadic logarithm of the Kd, by convention in mol/L. Consider `CCC(C)[C@@H](NC(=O)[C@@H](CCC(=O)O)NC(=O)[C@@H](CCC(=O)O)NC(=O)[C@@H](CCC(=O)O)NC(C)=O)C(=O)N[C@H](Cc1ccc(NC(=O)CCCCCn2cc(-c3ccc(-n4nc(-c5ccc(Cl)cc5)c5c(N)ncnc54)cc3)nn2)cc1)C(=O)NCC(=O)N[C@H](CCC(=O)O)C(=O)N[C@H](Cc1ccccc1)C(=O)N[C@H](CCC(=O)O)C(=O)N[C@H](C)C(N)=O` (stereo not given in full), for which the pKd in assay [2] is 9.55. Molecule `CN1CCN(c2cnc3c(C4CCN(C(=O)c5ccc(OC(F)(F)F)cc5N)CC4)ncnc3c2)CC1` [BAY-885] gave a negative logarithm of the IC50 (pIC50) in assay [3] of 6.92.

By pKi is commonly meant −log10 of the Ki, conventionally taken in molar units. Regarding `O=C(CCS)Nc1cccc(Nc2nccc(Nc3cc(C4CC4)[nH]n3)n2)c1`, in assay [4], the negative-log Ki (pKi) is 7.70. In turn, `C#CCCCCNC(=O)CCCCCn1nc(N)c2cc(-c3c(-c4ccccc4)nn4ccccc34)nnc21` showed a negative logarithm of the IC50 (pIC50) in assay [5] of 5.92.
